We go through one compound from PMC10266261, “A High-Throughput Approach to Identify Specific Neurotoxicants / Developmental Toxicants in Human Neuronal Cell Function Assays” (ALTEX, 2018).

Where two headings read alike, the source gives them in different places.

The subject of data set [1] is immature human dorsal root ganglia neurons. Kind of data set: cells. Type of data set: cell-based. To be noted: for EC50: Homo sapiens, Neuron. The protocol: The PeriTox test (= UKN5) is based on cells differentiated from the H9 human embryonic stem cell (hESC) line (WA09 line), which was obtained from WiCell (Madison, WI, USA). The import of cells and the experiments were authorized under license no. 170–79-1–4-27 (Robert Koch Institute, Berlin, Germany).
After one hour, 25 μl PDM with 4x concentrated serial dilutions of the test compounds was added to the cells. At 23 h after treatment, the cells were stained with SM and incubated for one additional hour at 37°C.
(§1) Image acquisition was performed with an ArrayScan VTI HCS (high content imaging) microscope (Cellomics, Waltham, MA, USA).
After automated imaging, an algorithm was applied that identified the neuronal somata (based on identified nuclei) and subtracted the somatic area from the total neuronal area to obtain the neurite area (NA), i.e., the number of pixels per field covered by neurites. […] Viability (V) was expressed as percentage of live cells relative to control.
(§2) Neurite area (NA) and viability (V) were always expressed as percentage of the DMSO control. In a first step, matched technical replicates were averaged. […] Curve fitting was performed employing a 4-parameter log-logistic function with least squares fit. The upper asymptote of the fit was forced to 100%, the lower asymptote was variable. The variation of DMSO controls was calculated from pooled values of DMSO controls over several experiments.
For calculation of the benchmark concentration values (BMC), a benchmark response (BMR) of three standard deviations of DMSO solvent controls of all assay plates (= “3 x noise level”) was used. […] To identify specific effects on neurite outgrowth, the EC50 ratio of EC50(viability)/EC50(neurite area) was calculated.
This method uses human immature dorsal root ganglia neurons (iDRG) that are produced from pluripotent stem cells that are still in a phase of neurite growth. Like in the NeuriTox assay, exposure to toxicants in this test is for 24 h, and readouts for viability (V) and neurite area (NA) are also conducted in a similar way (Fig. 7A).

For the next data set, the system named is cardiomyocytes. To be noted: specific = cardio-physiologic parameters affected after 30 min at three-fold lower concentration than viability and no effect on viability after 24 h; ref Sirenko et al., 2017; cited from earlier work.
The next data set deals with LUHMES cells. Kind of data set: cells. To be noted: for EC50: Homo sapiens; for classification by BMC ratio (BMCV/BMCNA): screen data. Type of data set: cell-based, human. The protocol:
For the NeuriTox test (= UKN4), LUHMES (Lund human mesencephalic) cells were characterized and cultured as described in detail earlier ([Krug et al., 2013]; [Lotharius et al., 2005]; [Scholz et al., 2011]). Briefly, cells were maintained in proliferation medium (PM: AdvDMEM/F12 supplemented with 2 mM glutamine, 1x N2 supplement and 40 ng/ml fibroblast growth factor-2) in PLO/fibronectin coated flasks (50 μg/ml poly-L-ornithine (PLO) and 1 μg/ml fibronectin). For differentiation, cells were seeded at a density of 46,000 cells/cm^2 in PM. After 24 h, they were switched to differentiation medium (DM) containing AdvDMEM/F12 supplemented with 2 mM glutamine, 1x N2 supplement, 2.25 μM tetracycline, 1 mM dibutyryl 3’,5’-cyclic adenosine monophosphate (cAMP), and 2 ng/ml recombinant human glial cell derived neurotrophic factor (GDNF).
For the NeuriTox test, LUHMES cells were differentiated for 48 h and seeded into 96 well plates at a density of 100,000 cells/cm^2 in a volume of 90 μl DM without cAMP and GDNF. Treatment was initiated applying 10 μl of a 10x concentrated treatment solution one hour after seeding. At 24 h after treatment, staining mix (SM) was applied (final concentrations: 1 μg/ml H-33342, 1 μM calcein-AM).
as §1
The procedure was applied as detailed earlier ([Hoelting et al., 2016]; [Stiegler et al., 2011]). After automated imaging, an algorithm was applied that identified the neuronal somata (based on identified nuclei) and subtracted the somatic area from the total neuronal area to obtain the neurite area (NA), i.e., the number of pixels per field covered by neurites. Viability analysis was performed on the same pictures using combined information from H-33342 and calcein channels. Cells with normal-sized nuclei that were calcein-positive were counted as live cells, whereas H-33342 single-positive cells were counted as dead cells. Viability (V) was expressed as percentage of live cells relative to control.
as §2
For calculation of the benchmark concentration values (BMC), a benchmark response (BMR) of three standard deviations of DMSO solvent controls of all assay plates (= “3 x noise level”) was used. […] To identify specific effects on neurite outgrowth, the EC50 ratio of EC50(viability)/EC50(neurite area) was calculated. The NeuriTox test system has a specificity threshold ratio of 4, the PeriTox test system has one of 3 ([Hoelting et al., 2016]; [Krug et al., 2013]).
If V was not affected at the highest tested concentration (HTC), then 4 x HTC was used as surrogate EC50(V) (marked with ♦; for EC25 calculation, the HTC was doubled in this case) ([Krug et al., 2013]).
For the actual screening procedure, a defined workflow was established that contained several pre-determined decision points. All compounds were tested at 1:1000 dilutions of their stock concentration, and at subsequent 3-fold dilution levels. For most compounds, the stock was 20 mM, so that the test concentrations were 20 μM, 6.7 μM, 2.2 μM, 0.7 μM, 0.25 μM, 82 nM, 27 nM, 9 nM, 3 nM, and 1 nM. For 2,2’,4,4’,5,5’-hexabromodiphenyl-ether, chrysene, dibenz(a,h)anthracene, bis(tributyltin) oxide, benzo[g,h,i]perylene, and 2,3,7,8-tetrachlorodibenzo-p-dioxin lower stock concentrations were used.

The mark [2] stands for this setting: 24 h, read-out: EC50(NA), neurite area.

For the compound `CC(C)[C@@H]1NC(=O)[C@H](C)OC(=O)[C@@H](C(C)C)NC(=O)[C@@H](C(C)C)OC(=O)[C@H](C(C)C)NC(=O)[C@H](C)OC(=O)[C@@H](C(C)C)NC(=O)[C@@H](C(C)C)OC(=O)[C@H](C(C)C)NC(=O)[C@H](C)OC(=O)[C@@H](C(C)C)NC(=O)[C@@H](C(C)C)OC1=O` [Valinomycin], the EC50 (in general, the midpoint of the concentration-response curve) is 3 nM in data set [1] (setting [2]); 20 nM in data set [1] (read-out: EC50(NA), neurite area); 200 nM in data set [1] (read-out: EC50(V), viability, surrogate marked ♦); 10 nM in the data set on LUHMES cells (setting [2]); 6200 nM in the data set on LUHMES cells (24 h, read-out: EC50(V), viability); 10 nM in the data set with LUHMES cells (read-out: EC50 for reduction of neurite area). The “classification in the PeriTox screen” value in data set [1] (three independent screen runs, up to 20 μM) is “active hit compounds”. In addition, in the data set with cardiomyocytes, the “classification in the cardiotoxicity test method” value was “generally cytotoxic”. Besides, in the data set with LUHMES cells (hit confirmation, ≥ 4 = specific (developmental) neurotoxicant), the “ratio EC50(V)/EC50(NA)” value came out at 620. Moreover, the “classification by BMC ratio (BMCV/BMCNA)” value is given as “specific DNT-compounds” in the data set with LUHMES cells (threshold changed to 2) and “cytotoxic” with LUHMES cells (threshold set at 3.16). The “classification in the NeuriTox screen” value in the data set with LUHMES cells (screen, up to 20 μM, 24 h, hit = NA decreased at concentrations not affecting viability) was “active hit compounds”.
